Experimental data: ChEMBL document CHEMBL1130931, “Synthesis and structure-activity relationships of 7-(2-aminoalkyl)morpholinoquinolones as anti-Helicobacter pylori agents” (1998)
Converted amounts (≈) assume the structure as drawn.

Tests used:
Format in all cases: functional
[1] = tested on: Helicobacter pylori; assay: In vitro minimum inhibitory concentration against growth of Helicobacter pylori ATCC 43504.
[2] = tested on: Gerbillinae; assay: The ratio of the number of Mongolian gerbils in which Helicobacter pylori was not detected to that of Mongolian gerbils tested (percent) was represented as clearance rate at 0.3 mg/kg dose
[3] = tested on: Gerbillinae; assay: The ratio of the number of Mongolian gerbils in which Helicobacter pylori was not detected to that of Mongolian gerbils tested (percent) was represented as clearance rate at 1 mg/kg dose
[4] = tested on: Gerbillinae; assay: The ratio of the number of Mongolian gerbils in which Helicobacter pylori was not detected to that of Mongolian gerbils tested (percent) was represented as clearance rate
[5] = tested on: Gerbillinae; assay: The ratio of the number of Mongolian gerbils in which Helicobacter pylori was not detected to that of Mongolian gerbils tested (percent) was represented as clearance rate at 10 mg/kg dose
[6] = tested on: Gerbillinae; assay: The ratio of the number of Mongolian gerbils in which Helicobacter pylori was not detected to that of Mongolian gerbils tested (percent) was represented as clearance rate at 30 mg/kg dose
[7] = tested on: Gerbillinae; assay: The ratio of the number of Mongolian gerbils in which Helicobacter pylori was not detected to that of Mongolian gerbils tested (percent) was represented as clearance rate at 3 mg/kg dose

MIC [1] [µg/mL] | SMILES | other results
0.39 (≈ 0.93 µM) | COc1c(N2CCO[C@H](CN(C)C)C2)c(F)cc2c(=O)c(C(=O)O)cn(C3CC3)c12 | –
0.012 (≈ 0.0286 µM) | COc1c(N2CCO[C@@H](CN(C)C)C2)c(F)cc2c(=O)c(C(=O)O)cn(C3CC3)c12 | Ratio [2]: 0%; Ratio [3]: 100%
0.05 (≈ 0.127 µM) | CNCC1CN(c2c(F)cc3c(=O)c(C(=O)O)cn(C4CC4)c3c2F)CCO1 (configuration not stated) | –
0.05 (≈ 0.123 µM) | CCNCC1CN(c2c(F)cc3c(=O)c(C(=O)O)cn(C4CC4)c3c2F)CCO1 (configuration not stated) | –
0.2 (≈ 0.508 µM) | NCCC1CN(c2c(F)cc3c(=O)c(C(=O)O)cn(C4CC4)c3c2F)CCO1 (configuration not stated) | –
0.05 (≈ 0.132 µM) | NCC1CN(c2c(F)cc3c(=O)c(C(=O)O)cn(C4CC4)c3c2F)CCO1 (configuration not stated) | Ratio [4]: 80%
0.025 (≈ 0.0614 µM) | CN(C)CC1CN(c2c(F)cc3c(=O)c(C(=O)O)cn(C4CC4)c3c2F)CCO1 (configuration not stated) | –
0.78 (≈ 1.85 µM) | CC(=O)NCC1CN(c2c(F)cc3c(=O)c(C(=O)O)cn(C4CC4)c3c2F)CCO1 (configuration not stated) | –
0.05 (≈ 0.118 µM) | CN(C)CC1CN(c2c(F)cc3c(=O)c(C(=O)O)cn(C4CC4)c3c2Cl)CCO1 (configuration not stated) | –
0.025 (≈ 0.0596 µM) | COc1c(N2CCOC(CN(C)C)C2)c(F)cc2c(=O)c(C(=O)O)cn(C3CC3)c12 (configuration not stated) | –
0.39 (≈ 0.925 µM) | CCCNCC1CN(c2c(F)cc3c(=O)c(C(=O)O)cn(C4CC4)c3c2F)CCO1 (configuration not stated) | –
0.2 (≈ 0.459 µM) | CCN(CC)CC1CN(c2c(F)cc3c(=O)c(C(=O)O)cn(C4CC4)c3c2F)CCO1 (configuration not stated) | –
0.1 (≈ 0.257 µM) | CN(C)CC1CN(c2cc3c(cc2F)c(=O)c(C(=O)O)cn3C2CC2)CCO1 (configuration not stated) | –
0.025 (≈ 0.0684 µM) | CC1(C)S[C@@H]2[C@H](NC(=O)[C@H](N)c3ccc(O)cc3)C(=O)N2[C@H]1C(=O)O [AMOXICILLIN] | –
0.025 (≈ 0.0334 µM) | CC[C@H]1OC(=O)[C@H](C)[C@@H](O[C@H]2C[C@@](C)(OC)[C@@H](O)[C@H](C)O2)[C@H](C)[C@@H](O[C@@H]2O[C@H](C)C[C@H](N(C)C)[C@H]2O)[C@](C)(OC)C[C@@H](C)C(=O)[C@H](C)[C@@H](O)[C@]1(C)O [CLARITHROMYCIN] | Ratio [5]: 0%; Ratio [6]: 100%
0.2 | C[C@H]1COc2c(N3CCN(C)CC3)c(F)cc3c(=O)c(C(=O)O)cn1c23.C[C@H]1COc2c(N3CCN(C)CC3)c(F)cc3c(=O)c(C(=O)O)cn1c23.O [LEVOFLOXACIN] | Ratio [5]: 60%; Ratio [7]: 0%
0.2 (≈ 0.51 µM) | C[C@@H]1CN(c2c(F)c(N)c3c(=O)c(C(=O)O)cn(C4CC4)c3c2F)C[C@H](C)N1 [SPARFLOXACIN] | Ratio [4]: 0%
0.39 (≈ 0.965 µM) | NC1CCN(c2nc3c(cc2F)c(=O)c(C(=O)O)cn3-c2ccc(F)cc2F)C1 (configuration not stated) [TOSUFLOXACIN] | Ratio [4]: 0%
